Like-named read-outs stand apart in the source and are kept apart here. Numbered stars: 1 amine (or outer) side, 2 acyl side, 3 side chain; on linkers, the order of the positions; unused ones are H or OH. Peptide text beside a SMILES is read from it. CO = O=C([*:1])[*:2]
What was measured:
streptavidin (1a-SA) = target: T1, streptavidin (1a-SA) (Streptomyces avidinii, UniProt P22629); assay: ID-PCR on single target-ligand pair, qPCR threshold cycle (FIG. 20b); assay type: binding; details: with 1a-SA, Klenow extension and qPCR
T1 construct: 5'-carboxylate ssDNA oligonucleotide 1a (Cy3-labelled), chemically coupled via NHS ester; purchased New England Biolabs
Procedure: We investigated whether binding between a small molecule and a protein could replace a covalent linkage in a DNA hairpin and support extension and PCR. […] The target and ligand strands shared a 6-nt complementary region.
An extension mixture consisting of 10×NEB Buffer 2 (2 μL), dNTPs (660 pmol each in 2 μL water), and the target strand (200 fmol in 9 μL PBS) was incubated at 37° C. for 5 minutes. The appropriate ligand strand (200 fmol in 2 μL water) was added and the reaction mixture was incubated at 37° C. for 15 minutes. Klenow fragment exo^− (2.5 U in 5 μL of 1×NEB Buffer 2, New England Biolabs) was added. The primer extension reaction (final volume=20 μL) was incubated at 37° C. for 15 minutes. The polymerase was inactivated by heating to 75° C. for 20 minutes.
For each 25 μL qPCR reaction, 12.5 μL of 2×SYBR Green iQ Supermix (Bio-Rad) was combined with 1 μL of 10 μM Primer A, 1 μL of 10 μM Primer B, and 9.5 μL Milli Q H2O. […] Quantitative PCR was performed using a CFX-96 Real-Time System with a C1000 Thermal Cycler (Bio-Rad). […]
All primer extension and qPCR reactions were performed as described above, except that free ligand (200 pmol in 2 μL 10% DMSO) or DMSO (2 μL of 10% DMSO) was added when appropriate. […] Unless otherwise noted, PCR products were analyzed by PAGE on 10% TBE gels at 200 V for 25 minutes staining with ethidium bromide and imaging on a Chemilmager (AlphaInnotech). […]

streptavidin [1] = target: T2, streptavidin (Streptomyces avidinii, UniProt P22629); assay: Gel shift of 2b-desthiobiotin/streptavidin complex (FIG. 25c); assay type: binding; details: duplex 10 nM, read-out: apparent Kd for streptavidin
T2 construct: 5'-carboxylate ssDNA oligonucleotide 1a (Cy3-labelled), chemically coupled via NHS ester; purchased New England Biolabs
Procedure: The DNA-ligand conjugate 2b-desthiobiotin was hybridized to a complementary 20-mer carrying a Cy3 label at the 3′-end. The resulting duplex (10 nM) was incubated with increasing concentrations of streptavidin in binding buffer (145 mM NaCl, 10 mM Tris/HCl, 10 mM MgCl2, 7 mM Na2PO4, 1.9 mM KCl, 1 mM dithiothreitol, pH 7.4), for 1 h and analyzed on a 20% TBE polyacrylamide gel. The appearance of a higher molecular weight band indicated formation of a streptavidin-2b-desthiobiotin complex. The apparent Kd was determined from the streptavidin concentration for which the bands corresponding to free DNA and to the complex were of approximately equal intensity.

carbonic anhydrase [2] = target: T3, carbonic anhydrase (Bos taurus, UniProt P00921); assay: Carbonic anhydrase enzymatic activity inhibition, 4-nitrophenyl acetate substrate (FIG. 25a,b); assay type: biochemical, bovine; details: 37° C.; read-out: Ki for CA
trypsin [3] = target: T4, trypsin (Bos taurus, UniProt P00760); assay: Trypsin inhibition, fluorogenic substrate Z-Arg-AMC (FIG. 25d); assay type: biochemical, bovine
T4 sequence (P00760 24-246): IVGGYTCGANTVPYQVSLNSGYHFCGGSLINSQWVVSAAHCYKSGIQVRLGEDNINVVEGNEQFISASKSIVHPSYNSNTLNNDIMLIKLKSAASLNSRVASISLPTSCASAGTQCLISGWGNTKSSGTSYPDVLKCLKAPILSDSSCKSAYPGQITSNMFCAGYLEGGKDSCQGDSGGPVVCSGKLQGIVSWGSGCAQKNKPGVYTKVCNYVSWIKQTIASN
Procedure: Conditions were adopted from a previously reported protocol.^17 Trypsin (200 fmol) was diluted in 90 μL PBS and was incubated with various concentrations of antipain, a known inhibitor of tryptic proteolysis, or 2e-antipain. The solution was equilibrated at room temperature for 10 minutes and at 35° C. for 5 minutes before addition of the fluorogenic proteolytic substrate Z-Arg-AMC (Bachem) (10 nmol in 10 μL 50% DMSO) (final volume=100 μL).
Equation Used to Fit Ki from Inhibitory Curves (FIGS. 25a, b, d).
The Ki was determined by fitting the following equation to the plot of normalized activity vs. inhibitor concentration: Vo=c+d(([E]tot+[i]tot+Ki)−sqrt((−[E]tot−[I]tot−Ki)^2−4*[E]tot*[I]tot))/(2*[E]tot), where Vo is initial reaction velocity, [E]tot is total enzyme concentration, [I]rot is total inhibitor concentration; c and d are variable parameters for the maximum Vo and for the difference between the minimum and maximum Vo, respectively.

trypsin [4] = target: T4, trypsin; details: trypsin and antipain; cited from earlier work
streptavidin [5] = target: T2, streptavidin; assay: ID-PCR model selection, ligand library x target library in one solution (FIG. 22); assay type: binding; details: DNA-linked ligand; relative to control lacking proteins; 261 ligand x 259 target sequences
Procedure: (§1) Finally, we tested the ability of ID-PCR to simultaneously evaluate all possible combinations of multiple ligands and multiple targets in a single solution. […] The negative control ligand and target were conjugated to libraries of 256 different sequence tags. The resulting solution therefore contained equimolar quantities of each of 261 ligand sequences and each of 259 target sequences, collectively representing 67,599 possible ligand-target sequence combinations. A control sample was prepared identically except using DNA not conjugated to any protein targets. Both samples were subjected to ID-PCR followed by high-throughput DNA sequencing.
(§2) A control primer extension reaction was also performed using the same pool of ligand strands, but with a pool of target strands lacking conjugated proteins (1, 1i, 1j, 60 pM each and 1k, 9.8 nM). Adapter sequences required for Illumina sequencing, as well as barcodes identifying the input and selection experiments, were installed by PCR with either Primer C (input control) or Primer D (selection) and Primer E. The appropriate cycle number for each reaction was determined by qPCR evaluation, such that preparative PCR reactions (50 μL total volume) were stopped in the exponential amplification phase in order to minimize dynamic compression during PCR. […]

[6] = target: 68-nt DNA aptamer that binds daunomycin; details: DNA aptamer and daunomycin; cited from earlier work
streptavidin (SA) = streptavidin (SA) (Streptomyces avidinii, UniProt P22629); details: free ligand and streptavidin; cited from earlier work
[7] = target: carbonic anhydrase II (CA) (Bos taurus, UniProt P00921); details: cited from earlier work
carbonic anhydrase [8] = target: T3, carbonic anhydrase; assay: ID-PCR model selection, ligand library x target library in one solution (FIG. 22); assay type: binding, bovine; details: DNA-linked ligand; relative to control lacking proteins; 261 ligand x 259 target sequences
Procedure: as §1, §2

T3 sequence (P00921 whole entry): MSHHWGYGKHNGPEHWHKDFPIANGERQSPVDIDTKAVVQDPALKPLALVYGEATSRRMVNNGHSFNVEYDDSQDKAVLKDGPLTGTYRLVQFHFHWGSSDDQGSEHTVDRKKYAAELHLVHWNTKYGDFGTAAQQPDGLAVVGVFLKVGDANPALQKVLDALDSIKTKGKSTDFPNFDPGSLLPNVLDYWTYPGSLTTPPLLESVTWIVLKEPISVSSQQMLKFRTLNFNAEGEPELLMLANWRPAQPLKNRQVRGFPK
T2 sequence (P22629 25-183): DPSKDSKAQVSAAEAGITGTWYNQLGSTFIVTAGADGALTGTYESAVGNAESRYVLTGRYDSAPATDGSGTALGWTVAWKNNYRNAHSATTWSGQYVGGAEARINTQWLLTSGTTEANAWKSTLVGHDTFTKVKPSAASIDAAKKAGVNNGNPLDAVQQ
carbonic anhydrase II (CA), sequence (P00921 whole entry): as the sequence (P00921 whole entry) above
T1 sequence (P22629 25-183): as the sequence (P22629 25-183) above
streptavidin (SA), sequence (P22629 25-183): as above

With “2b-desthiobiotin: ligand strand 2 conjugated to desthiobiotin (SEQ 57) (TGGATCGTGATGACTGTCCCGACAAGCATACGTATCTCACT; desthiobiotin conjugated, position not given here)” the “amplification efficiency in ID-PCR” value (streptavidin (1a-SA)) was “comparable to that of 2a-biotin” and the Kd (streptavidin [1]) was 0.008 µM.

“2s-GLCBS: GLCBS-DNA conjugate (SEQ 78) (DNA TGGATCGTGATGACTGTCCCGACAAGGATCCGTATCTCACT; DNA, backbone and methylation of C not given here; GLCBS conjugated at 3' end, further chemistry not fully specified)” gave a Ki (carbonic anhydrase [2]) of 0.38 µM.

In the case of `CC(C)[C@H](NC(=O)[C@H](CCCNC(=N)N)NC(=O)N[C@@H](Cc1ccccc1)C(=O)O)C(=O)N[C@H](C=O)CCCNC(=N)N` [antipain] ({Phe-CO}-Arg-Val-Arg-aldehyde), the Ki (trypsin [3]) is listed as 0.0395 µM and the Ki (trypsin [4]) is listed as 0.1 µM.

With `O=C(O)CCCC[C@@H]1SC[C@@H]2NC(=O)N[C@@H]21` [biotin] the “Enrichment Factor” value (streptavidin [5]) was 860.

In the case of `COc1cccc2c1C(=O)c1c(O)c3c(c(O)c1C2=O)C[C@@](O)(C(C)=O)C[C@@H]3O[C@H]1C[C@H](N)[C@H](O)[C@H](C)O1` [daunomycin], the Kd [6] is listed as 0.272 µM.

For `C[C@@H]1NC(=O)N[C@@H]1CCCCCC(=O)O` [desthiobiotin], the “Enrichment Factor” value (streptavidin [5]) is given as 3078 and the Kd (streptavidin (SA)) is given as 0.002 µM.

For Gly-Leu-CBS [GLCBS], the Ki ([7]; FIG. 20 legend) is listed as 0.009 µM, the Kd ([7]; text b276) is listed as 0.009 µM and the Ki (carbonic anhydrase [2]) is listed as 0.47 µM. For the same compound, the “Enrichment Factor” value (carbonic anhydrase [8]) was 225.

Source: US10011868B2, “Reactivity-dependent and interaction-dependent PCR” (priority 2009, dated 2018)
